Measured values from publication PMC8041433 (Environmental Health Perspectives, 2021).
Values joined by “and” are separate entries in the source; they are usually repeats but may differ in a detail not shown here. Equal entries are not always repeated. Structures can show the parent of a compound that is named as a salt. Where two headings read alike, the source gives them in different places.

What was measured:
recombinant human AChE [1] = biological target: T1, recombinant human AChE (Homo sapiens, UniProt P22303); assay: biochemical
recombinant human AChE [2] = biological target: T1, recombinant human AChE
[3] = biological target: AChE in neural stem cell spheroids (Homo sapiens, UniProt P22303); assay: cell-based; details: for IC50: potency (IC50)
recombinant human AChE [4] = biological target: T1, recombinant human AChE; assay: biochemical; details: potency (IC50), Enzyme with microsomes
[5] = biological target: AChE in neural stem cells (Homo sapiens, UniProt P22303); assay: cell-based
[6] = biological target: AChE in SH-SY5Y spheroids (Homo sapiens, UniProt P22303); assay: cell-based; details: potency (IC50)
recombinant human AChE [7] = biological target: T1, recombinant human AChE; assay: biochemical; remark: listed apart in the source
recombinant human AChE [8] = biological target: T1, recombinant human AChE; assay: biochemical; type: biochemical; details: for AC50: AC50 (uM)
AChE in SH-SY5Y cells = AChE in SH-SY5Y cells (Homo sapiens, UniProt P22303); assay: cell-based
[9] = Neural stem cell spheroid (24 h)
[10] = Neural stem cell spheroid (48 h)
[11] = potency (IC50), SH-SY5Y cells monolayer
Wherever IR or R is given: key: Reversible (R); Irreversible (IR); ND, not detected in enzyme-based AChE inhibition assay from current study.

AChE in neural stem cells, sequence (P22303 32-614): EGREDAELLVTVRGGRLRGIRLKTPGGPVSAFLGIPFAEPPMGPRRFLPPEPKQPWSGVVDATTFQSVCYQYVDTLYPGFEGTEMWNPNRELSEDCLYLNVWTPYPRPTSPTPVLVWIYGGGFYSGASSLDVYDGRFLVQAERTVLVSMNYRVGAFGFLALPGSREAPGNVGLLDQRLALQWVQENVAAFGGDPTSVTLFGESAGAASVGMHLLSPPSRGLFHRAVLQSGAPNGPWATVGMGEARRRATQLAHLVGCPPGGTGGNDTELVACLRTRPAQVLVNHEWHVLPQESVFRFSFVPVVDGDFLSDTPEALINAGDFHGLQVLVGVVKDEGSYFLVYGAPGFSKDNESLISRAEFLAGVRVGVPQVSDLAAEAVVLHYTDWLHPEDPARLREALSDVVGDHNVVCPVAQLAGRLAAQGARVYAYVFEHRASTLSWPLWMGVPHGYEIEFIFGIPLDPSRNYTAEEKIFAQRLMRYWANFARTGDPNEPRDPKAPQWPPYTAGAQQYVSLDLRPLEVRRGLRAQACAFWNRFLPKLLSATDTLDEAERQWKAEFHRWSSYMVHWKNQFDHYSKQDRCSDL
AChE in SH-SY5Y spheroids, sequence (P22303 32-614): as above
AChE in neural stem cell spheroids, sequence (P22303 32-614): as above
T1 sequence (P22303 32-614): as above
AChE in SH-SY5Y cells, sequence (P22303 32-614): as above

SMILES	IC50 (recombinant human AChE [1])	CC-v2 (curve classes) (recombinant human AChE [2])	Efficacy (recombinant human AChE [2])	IC50 [3, 9]	IC50 [3, 10]	IC50 (recombinant human AChE [4])	IC50 [5]	IC50 ([6]; SH-SY5Y spheroids (24 h))	IC50 ([6]; SH-SY5Y spheroids (48 h))	CC-v2 (curve classes) (recombinant human AChE [7])	IC50 (recombinant human AChE [7]; IC50 (uM))	IC50 (recombinant human AChE [7]; potency (IC50), Enzyme)	CC-v2 (curve classes) (AChE in SH-SY5Y cells)	IC50 (AChE in SH-SY5Y cells; IC50 (uM))	IC50 (AChE in SH-SY5Y cells; [11])	Efficacy (recombinant human AChE [7])	IR or R (recombinant human AChE [8])	AC50 (recombinant human AChE [8]; activity_5)	AC50 (recombinant human AChE [8]; activity_10)	AC50 (recombinant human AChE [8]; activity_60)	further results
Cc1ccc2c(n1)Oc1ccc(C(C)C(=O)OCC(=O)N(C)C)cc1C2 (stereo not drawn) [Mepranoprofen arbamel, reference compound]	24.3 µM	4	0	12.5 ± 3.49 µM	11.3 µM	37.3 ± 5.13 µM	12.7 ± 0.85 µM	7.46 ± 3.5 µM	18 ± 2.29 µM	-2.2 and -1.1	24.5 µM and 15.5 µM	15.4 ± 1.77 µM	-2.1 and -1.1	15.5 µM and 12.3 µM and 27.5 µM	19.3 µM						AC50 (recombinant human AChE [8]): 12.2 µM and 13.7 µM and 19.3 µM (3×) and 7.69 µM and 17.2 µM and 9.68 µM
CNC(=O)ON=C(C)SC [Methomyl]	3.83 ± 0.53 µM	-1.1	-96.277	6.27 ± 2.23 µM	9.75 µM	3.18 ± 0.66 µM	7.99 ± 1.49 µM	6.41 ± 8.14 µM	3.81 ± 0.25 µM	-1.1		1.83 ± 0.12 µM	-1.1	1.59 µM and 2 µM	4.11 ± 0.27 µM	-92.651	R				
CC(=O)Oc1cc(C(C)C)c(OCCN(C)C)cc1C [Moxisylyte hydrochloride, reference compound]	20.1 ± 1.36 µM	-2.4	-32.666		24.3 µM	19.3 µM	19.3 µM	14.3 µM	20.9 µM	-2.2		21.9 µM	-2.1 and -1.1	13.8 µM	20.1 µM	-54.154	R	19.3 µM and 17.2 µM and 21.7 µM	19.3 µM and 24.3 µM and 21.7 µM	17.2 µM and 24.3 µM and 21.7 µM	potency (IC50), Neural stem cell spheroid (24 h) [3]: Inactive
CNC(=C[N+](=O)[O-])NCCSCc1csc(CN(C)C)n1 [Nizatidine, reference compound]	15.6 ± 3.57 µM	4				20.1 ± 1.36 µM	18.6 ± 1.21 µM	7.05 ± 1.96 µM	12.2 ± 1.41 µM	-2.1	35.6 µM and 27.5 µM	10.5 ± 0.68 µM	-1.1 and -2.1	14.2 µM and 12.6 µM and 12.3 µM and 13.8 µM and 11.2 µM	7.68 µM		R	24.3 µM and 27.3 µM and 6.85 µM	21.7 µM and 27.3 µM and 30.6 µM	27.3 µM and 19.3 µM and 24.3 µM	potency (IC50), Neural stem cell spheroid (24 h) [3]: Inactive
CNC(=O)O/N=C(\SC)C(=O)N(C)C [Oxamyl]	2.81 ± 0.32 µM	-1.1		0.96 ± 0.38 µM	1.85 µM	2.16 ± 0.36 µM	3.39 ± 0.22 µM	2.28 ± 0.63 µM	3.05 ± 0.52 µM	-1.1		1.74 ± 0.48 µM	-1.1	1.55 µM and 1.42 µM and 1.23 µM	2.5 ± 0.28 µM			3.95 µM and 4.44 µM and 3.52 µM	2.8 µM and 3.52 µM and 2.5 µM	0.703 µM and 1.57 µM and 1.25 µM	
CCOP(=S)(OCC)Oc1ccc([N+](=O)[O-])cc1 [Parathion]	18 ± 2.29 µM	-1.1		3.9 µM	9.13 µM	1.27 µM	6.88 µM	18.1 µM	10.6 µM			22.8 µM	-2.1	13.8 µM and 64.1 µM and 71.9 µM	11.3 µM			24.3 µM and 30.6 µM	27.3 µM and 24.3 µM	21.7 µM and 19.3 µM	
